Test results reported in patent publication US8969303B2, “Tocotrienol esters” (First Tech International Limited, priority 2010, dated 2015).
Values belong to the compound of their own block, whether it stands above or below them.

Key:
[1] = test system: +SA mammary epithelial cells; test: Antiproliferative MTT assay on +SA mammary epithelial cells; assay type: cell-based, mouse; conditions: for IC50: malignant mice +SA mammary cells, 24 hour treatment, MTT
Source text: +SA mammary epithelial cell lines were serially passaged at subconfluent cell density. The +SA cell line was derived from an adenocarcinoma that developed spontaneously in a BALB/c female mouse. That cell line is discussed in more detail in Anderson, L. W., Danielson, K. G., Hosick, H. L. Eur. J. Cancer Clin. Oncol. 1981, 17, 1001-1008, Danielson, K G., Anderson, L. W., Hosick, H. L. Cancer Res. 1980, 40, 1812-1819.31, and Anderson, L. W., Danielson, K. G., Hosick, H. L. In Vitro. 1979, 15, 841-843. Cell culture conditions were similar to those described in detail in Shah, S. J., Gapor, A., Sylvester, P. W. Nutr. Cancer. 2003, 45, 236-246, Shah, S. J., Sylvester, P. W. Biochem. Cell. Biol. 2005, 83, 86-95, Wali, V. B., Sylvester, P. W. Lipids, 2007, 42, 1113-1123, and Wali, V. B., Bachawal, S. V., Sylvester, P. W. Exp. Biol. Med. (Maywood) 2009, 234, 639-650. Briefly, +SA cells were maintained in serum-free defined medium consisting of Dulbecco's modified Eagle's medium (DMEM)/F12 containing 5 mg/ml bovine serum albumin (BSA), […], 100 U/ml soybean trypsin inhibitor, 100 U/ml penicillin, 0.1 mg/ml streptomycin, […], and 10 ng/ml epidermal growth factor. For subculturing, cells were rinsed twice with sterile Ca^2+ and Mg^2+-free phosphate buffered saline (PBS) and incubated in 0.05% trypsin containing 0.025% EDTA in PBS for 5 minutes at 37° C. The released cells were centrifuged, resuspended in serum-free defined media and counted using a hemocytometer. A stock solution of the Compounds was prepared in DMSO. Once dissolved, this solution was added to a small volume of sterile 10% BSA in water and incubated overnight at 37° C. This solution conjugated to BSA was used to prepare various concentrations (0-40 μM) of tocotrienol analogs. DMSO was added to all treatment media such that the final DMSO concentration was the same in all treatment groups within a given experiment and was always less than 0.1%. For cytotoxicity studies, cells were seeded at a density of 5×10^4 cells/well (6 wells/group) in 24-well culture plates and allowed to grow in serum-free control defined media. After a 3 day incubation period (approximately 70% confluency), cells were divided equally into various treatment groups and exposed to their respective treatments for a 24 hour incubation period. Following the 24 hour treatment period, cell viability was measured using the MTT assay. All materials were purchased from Sigma Chemical Company (St. Louis, Mo.) unless otherwise stated.
+SA mammary epithelial cell viable number was determined by the 3-(4,5-dimethylthiazol-2-yl)-2,5-diphenyl tetrazolium bromide (MTT) colorimetric assay. On the day of assay, treatment medium was replaced with fresh growth medium containing 0.42 mg/ml MTT, and the cells in 24-well plates were incubated at 37° C. for 4 hours. Afterward, the medium was removed, and the MTT crystals were dissolved in isopropyl alcohol (1 ml/well). The optical density of each sample was read at 570 nm on a microplate reader (SpectraCount, Packard BioScience Company), against a blank prepared from cell-free cultures. The number of cells/well was calculated against a standard curve prepared by plating various concentrations of cells, as determined by hemocytometer, at the start of each experiment.
Differences among the various treatment groups in +SA cell cytotoxic studies were determined by analysis of variance (ANOVA) followed by Dunnett's t-test. The difference of P<0.05 was considered to be statistically significant as compared with vehicle-treated controls. Linear regression analysis of treatment effects on viable cell number in growth and cytotoxicity studies was used to determine the 50% growth inhibition concentration (IC50) for individual treatments.

MDA-MB-231 cells = test: Wound healing anti-migratory assay; assay type: cell-based; conditions: Homo sapiens, single dose of 5 μM, 24 hours, read-out: inhibition of the migrated MDA-MB231 cells
Protocol: The highly metastatic human breast cancer MDA-MB-231 cells were cultured in RPMI 1640 medium containing 10 mM HEPES, 4 mM L-glutamine, 10% fetal bovine serum, penicillin (100 IU mL-1), and streptomycin (50 μg mL-1), and grown in a 5% CO2 atmosphere at 37° C. Cells were plated onto sterile 24-well culture plates and allowed to recover for a confluent cell monolayer formed in each well (>95% confluence). Wounds were then inflicted to each cell monolayer using a sterile 200 μL pipette tip. Media were removed, cells monolayers were washed twice with PBS, and then fresh media containing test compounds were added to each well. Test compounds were prepared in DMSO at 5 μM concentration and added to the plates using DMSO as negative control. Tests were preformed in triplicate. The incubation was carried out for 24 hours under serum-starved conditions, after which the media was removed and the cells were fixed and stained using a Romanowski stain sold under the Diff Quick name (Dade Behring Diagnostics, Aguada, Puerto Rico). The number of cells which migrated on the scratched wound were counted under the microscope in three or more randomly selected fields (magnification: 400×). Final results are expressed as mean+/−SEM per 400× field.

[2] = Stability in phosphate buffer; assay type: physicochemical
Protocol: The stability of each of α-tocotrienol and Compound 6 was studied at 37° C. in phosphate buffer (pH 7.4). In amber vials, 500 μg/mL of each compound were dissolved in the buffer and the solution was incubated at 37° C. At interval times (0, 0.5, 1, 2, 4, 6, and 24 h), 50 μL it samples were collected and equal volumes of methanol were added to each sample followed by HPLC analysis.
(§1) A Shimadzu HPLC system (Columbia, Md.) was used for quantification of α-tocotrienol and Compound 6. This system is composed of SIL 20-AHT autosampler, SPD-20A UV/VIS detector, and LC-20AB pump connected to a Dgu-20A3 degasser. Data acquisition was achieved by LC Solution software version 1.22 SP1 Shimadzu. The following chromatographic conditions were used: […] (250×4.6 mm id; Phenomenex, Torrance, Calif.), flow rate was adjusted to 1.0 mL/min, and λ was set at 295 nm. For α-tocotrienol solubility and stability studies, an isocratic elution with MeOH-EtOH—CH3CN (40:30:30, v/v/v) as mobile phase for 10 min. α-tocotrienol was eluted at 6.7 min. For the simultaneous separation of α-tocotrienol and Compound 6 the following gradient elution was also used starting with H2O— MeOH—N(Et)3 (10:90:0.05, v/v/v) for 5 min, followed by isocratic MeOH—N(Et)3 (100:0.05, v/v) for another 10 min. The retention times were 4 and 14.1 for Compound 6 and α-tocotrienol, respectively. Standard curves for α-tocotrienol and Compound 6 in MeOH were prepared in the range of 0.4-50 μg/mL and 1-1000 μg/mL, respectively. Each compound was quantified using its calibration curve for compounds peak area versus its concentration.

Stability in rat plasma = assay type: in vitro ADME; conditions: 37° C.
Protocol: The stability of each of α-tocotrienol and Compound 6 was studied at 37° C. in rat plasma. In amber vials, 50 μg/mL of each Compound were dissolved in the plasma. The solution was incubated at 37° C., and at interval times (0, 0.5, 1, 2, 4, 6, and 24 h), 50 μL samples were taken and mixed with 100 μL of methanol followed by centrifugation at 14,000 rpm for 10 min. Each supernatant was analyzed by HPLC. In rat plasma, Compound 6 concentration was 100% stable over the first 3 h. Its concentration then started to decrease at the […] to become 81% and 77% of the initial concentration, respectively. After 24 hours, only 43% of the initial concentration of Compound 6 was detectable. The slow rate of hydrolysis of Compound 6 compared to α-tocotrienol may bode well for expected enhanced metabolic stability.
as §1

[3] = Water solubility in phosphate buffer; assay type: physicochemical; conditions: phosphate buffer pH 7.4, 25° C.
Protocol: About 5.6 mg of each of α-tocotrienol and Compound 6 were added to 3 mL of phosphate buffer (pH 7.4) in amber vials. Tested solutions were maintained shaking under at 25° C. for 24 h in a constant-temperature water bath. Each solution was then centrifuged at 5,000 rpm for 10 min before collecting samples from the clear supernatant at 0, 1, 2, 4, 6, and 24 h. Each compound concentration in the aspirates was determined by HPLC. […] The solubility of α-tocotrienol maleate (Compound 6) was nearly 1000 fold that of its parent α-tocotrienol.
A Shimadzu HPLC system (Columbia, Md.) was used for quantification of α-tocotrienol and Compound 6. This system is composed of SIL 20-AHT autosampler, SPD-20A UV/VIS detector, and LC-20AB pump connected to a Dgu-20A3 degasser. Data acquisition was achieved by LC Solution software version 1.22 SP1 Shimadzu. The following chromatographic conditions were used: […] (250×4.6 mm id; Phenomenex, Torrance, Calif.), flow rate was adjusted to 1.0 mL/min, and λ was set at 295 nm. For α-tocotrienol solubility and stability studies, an isocratic elution with MeOH-EtOH—CH3CN (40:30:30, v/v/v) as mobile phase for 10 min. α-tocotrienol was eluted at 6.7 min. […] Each compound was quantified using its calibration curve for compounds peak area versus its concentration.

[4] = Mus musculus, Epithelial cell, 24 h
[5] = phosphate buffer pH 7.4, 37° C.

Structure (SMILES): CC(C)=CCC/C(C)=C/CC/C(C)=C/CC[C@]1(C)CCc2c(C)c(OC(=O)c3cc(C(=O)O)ccc3C(=O)O)c(C)c(C)c2O1 [Compound 3, 2-(((R)-2,5,7,8-tetramethyl-2-((3E,7E)-4,8,12-trimethyltrideca-3,7,11-trienyl)chroman-6-yloxy)carbonyl)terephthalic acid]
IC50 [1, 4]: 1460 nM
inhibition at 5 µM (MDA-MB-231 cells): ~50%

Structure (SMILES): CC(C)=CCC/C(C)=C/CC/C(C)=C/CC[C@]1(C)CCc2c(C)c(OC(=O)c3ccc(C(=O)O)cc3C(=O)O)c(C)c(C)c2O1 [Compound 1, 4-(((R)-2,5,7,8-tetramethyl-2-((3E,7E)-4,8,12-trimethyltrideca-3,7,11-trienyl)chroman-6-yloxy)carbonyl)isophthalic acid]
IC50 [1, 4]: 1500 nM
inhibition at 5 µM (MDA-MB-231 cells): ~50%

stability in phosphate buffer (in words) [2, 5]: highly unstable
start of decomposition after dissolution [2, 5]: 1 h
chemical stability relative to the zero time concentration ([2]; phosphate buffer pH 7.4, 37° C., over 24 h): completely undetectable
Structure (SMILES): CC(C)=CCC/C(C)=C/CC/C(C)=C/CC[C@]1(C)CCc2c(C)c(O)c(C)c(C)c2O1 [α-tocotrienol]

Structure (SMILES): CC(C)=CCC/C(C)=C/CC/C(C)=C/CC[C@]1(C)CCc2cc(OC(=O)c3ccccc3)c(C)c(C)c2O1 [Compound 10, (R)-2,7,8-trimethyl-2-((3E,7E)-4,8,12-trimethyltrideca-3,7,11-trienyl)chroman-6-yl benzoate]
antiproliferative activity ([1]; +SA mammary cells, in words): inactive
IC50 [1, 4]: 6550 nM
inhibition at 5 µM (MDA-MB-231 cells): ~50%

% of the initial concentration in rat plasma (Stability in rat plasma; 4th hour): 81%
% of the initial concentration in rat plasma (Stability in rat plasma; 5th hour): 77%
% of the initial concentration in rat plasma (Stability in rat plasma; after 24 hours): 43%
concentration stable in rat plasma (Stability in rat plasma; over the first 3 h): 100%
solubility relative to parent α-tocotrienol [3]: ~1000 fold
chemical stability relative to the zero time concentration ([2]; 24 h, 500 μg/mL, pH 7.4): 100%
Structure (SMILES): CC(C)=CCC/C(C)=C/CC/C(C)=C/CC[C@]1(C)CCc2c(C)c(OC(=O)/C=C\C(=O)O)c(C)c(C)c2O1 [Compound 6, (Z)-4-oxo-4-((R)-2,5,7,8-tetramethyl-2-((3E,7E)-4,8,12-trimethyltrideca-3,7,11-trienyl)chroman-6-yloxy)but-2-enoic acid]
IC50 [1, 4]: 510 nM
IC50 [1]: 520 nM
